In US6593307B1, “Cyclic-ADP-ribose analogs” (Regents of the University of Minnesota, priority 1999, dated 2003):
“Also recorded” adds a separate entry of the source. Read-outs that look alike come from different tables or passages of the source.

Assays:
[1] = system: specific microsomal binding site for cADPR; details: cited from earlier work
[2] = system: sea urchin egg homogenates; assay: Ca2+ release assay in sea urchin egg homogenates; assay type: biochemical, Strongylocentrotus purpuratus; details: for EC50: S. purpuratus egg homogenates, read-out: half-maximal concentration for Ca2+ release (EC50)
Experimental: The dilutions and all experiments were conducted at 17° C. Free Ca^2+ concentrations were measured by monitoring the fluorescence (490 nm excitation, 535 nm emission) of the indicator using a Perkin Elmer Model 650 spectrofluometer. […] For some experiments a BMG FluoStar 96 well fluorescence plate reader was used. In this case, samples to be tested were added to wells of a 96 well plate in 1.5 μl aliquots. Calcium release was initiated by adding 150 μl of homogenate to each well with a multichannel pipette. Six to eight wells were measured simultaneously. Samples to be tested were diluted in IM buffer containing 10 μM EGTA.

[3] = Stability to heat (boiling water bath), read out by Ca2+ release
Excerpt: Aliquots were then cooled on ice and the ability of the sample to release Ca^2+ determined. Data is average±sd for a representative experiment performed in triplicate.

CB MNC [4] = assay: Fluorimetric determination of [Ca2+]i in CB MNC (FURA 2); assay type: cell-based, human
Experimental: Measurements were performed at room temperature in a 2 ml-cuvette under continuous stirring. […] Chem., 273, 8017-8024. The frequency of recording was 1 point/s. All measurements were performed in Ca^2+-free external solutions.

CD38 [5] = details: 1 μg/ml CD38 at 37° C.
[6] = system: cord blood (CB) mononuclear cells (MNC)
Experimental: (§2) After liquid culture, an appropriate number of MNC or CD34^+-enriched cells was plated in methylcellulose medium supplemented with a mixture of hemopoietic growth factors (Methocult; Stem Cell Technologies, Vancouver, BC, Canada). After 14 days of incubation in a humidified, 5% CO2 atmosphere at 37° C., colonies were scored using an inverted microscope, applying standard criteria for their identification.

CD38 [7] = assay: Stability to hydrolysis by CD38, read out by Ca2+ release
Live L. pictus eggs = assay: Microinjection into live sea urchin eggs (Ca2+ mobilization, cortical reaction)
Excerpt: Live L. pictus eggs were preloaded with the calcium indicator, fluo 3, by microinjection.

[8] = system: cord blood (CB) mononuclear cells (MNC); assay: Colony size (cells per colony) from CB MNC; assay type: cell-based, human; details: 100 μM, 24 hours priming
Experimental: as §2

[9] = system: bone marrow (BM)-derived clonogenic progenitors; assay: CFC output of bone marrow-derived clonogenic progenitors; assay type: cell-based, human; details: 100 μM, 24 hours, n=3
Excerpt: (§1) Normal bone marrow (BM) cells were obtained from donors providing marrow for allogeneic transplantation. Leukapheresis samples were obtained from normal donors providing peripheral blood (PB) progenitor cells for allogeneic transplant after a short course of granulocyte colony-stimulating factor. All donors gave informed consent. Mononuclear cells (MNC) from CB, BM and PB were separated by density gradient centrifugation on Ficoll-Hypaque (Sigma). After separation, cells were washed twice in Iscove's Modified Dulbecco's Medium (IMDM) containing 5% fetal calf serum (FCS) and resuspended in IMDM containing 10% FCS, penicillin 100 U/ml, streptomycin 100 μg/ml and glutamine 2 mM (complete medium).

[10] = system: peripheral blood (PB)-derived clonogenic progenitors; assay: CFC output of peripheral blood-derived clonogenic progenitors; assay type: cell-based, human; details: 100 μM, 24 hours, n=2
Excerpt: as §1

CD34+-enriched MNC = assay: CFC growth from CD34+-enriched fractions; assay type: cell-based, human; details: 100 μM, 24 hours, n=6
Experimental: Immunoaffinity purification of CD34^+ cells was used to enrich MNC in colony forming cells (CFC) and early progenitors (Krause, D. […] CD34^+ cell enrichment was performed by positive selection using the miniMACS immunomagnetic separation system (Miltenyi Biotec GmBH, Germany). Briefly, PB- or CB-derived MNC were suspended in phosphate-buffered saline (PBS) containing 0.5% bovine serum albumin and 5 mM EDTA and CD34^+ cells were separated using anti-CD34 antibody (clone: QBEND/10; isotype: mouse IgG1) and colloidal superparamagnetic beads. After labeling, the cell suspension was passed through a column held within a magnetic field causing CD34^+ cells to be retained in the column. Purified CD34^+ cells were then collected following removal of the column from the magnet and washing with buffer.

[11] = general statement, not tested here; cited from earlier work
L. pictus = details: cited from earlier work
CB MNC [12] = assay: Cytosine arabinoside-susceptibility of CB MNC CFC; assay type: cell-based, human
Excerpt: Thereafter, cells were washed, counted and plated in semisolid medium for assay of CFC at a concentration of 10^4 MNC/plate.

[13] = 100 nM in pipette, about 0.7 nM in the egg
[14] = 1 μM in pipette, about 10 nM in the egg
[15] = 10 μM in pipette, ~130 nM in the egg

inositol trisphosphate
competition for the cADPR binding site relative to cADPR [1]: at least a thousand times less effectively than cADPR

N=c1c2ncn3c2ccn1C1OC(COP(=O)(O)OP(=O)(O)OCC2OC3C(O)C2O)C(O)C1O (stereo not shown) [3-deaza-cADPR, cyclic 3-deaza-adenosine diphosphoribose]
lag before Ca2+ release at low concentrations [2]: an appreciable lag is seen | desensitization of homogenate to subsequent challenge by the other agonist ([2]; 1 μM cADPR, 500 nM 3-deaza-cADPR): renders the system unresponsive | EC50 [2]: 1 ± 0.4 nM | final concentration able/needed to elicit Ca2+ release ([2]; control traces, FIG. 3): 0.3 nM | resistance to heat hydrolysis [3]: resistant | fraction inactivated upon boiling ([3]; boiling for up to two hours, 350 nM): about 15% | [Ca2+]i after 24 hours (CB MNC [4]; 10 nM 3-deaza-cADPR, n=7, basal 20.3±1.8): 96.4 ± 5.0 nM | calcium response of intact cells over 30 min (CB MNC [4]; 100 μM cADPR or 10 nM 3-deaza-cADPR, zero-calcium external solution): same rate and extent | calcium levels following removal of the nucleotide (CB MNC [4]; at least 48 hours after removal): remained unchanged | [Ca2+]i(t=0), fitted parameter (CB MNC [4]; single exponential fit, 10 nM): 21.1 ± 0.6 nM | Δmax[Ca2+]i, fitted maximal calcium change (CB MNC [4]; single exponential fit, 10 nM): 74.0 ± 0.7 nM | τ, time constant of [Ca2+]i increase (CB MNC [4]; single exponential fit, 10 nM): 6.5 h | hydrolysis by CD38 (CD38 [5]): did not hydrolyze | median CFC output ([6]; 1 nM, n=5, control 1,150): 2,050 CFC/ml | median CFC output ([6]; 1 μM, n=5, control 1,150): 2,200 CFC/ml | CFC output compared to untreated cells ([6]; 1, 10, 100 and 1,000 nM, each concentration): significant increase | effect of 1 nM as share of the effect induced by 1 μM ([6]; CFC output): 95% | resistance to enzymatic hydrolysis (CD38 [7]): resistant | Ca2+ transient (Live L. pictus eggs; [13]): small | injected eggs with partial cortical reaction (Live L. pictus eggs; [13]): 1 out of 6 | full cortical reactions out of the 7 eggs injected (Live L. pictus eggs; [14]): 4 | partial cortical reaction out of the 7 eggs injected (Live L. pictus eggs; [14]): 1 | Ca2+ transient (Live L. pictus eggs; [15]): large | eggs with full cortical reaction (Live L. pictus eggs; [15]): 5 out of 5

Nc1ncnc2c1ncn2[C@@H]1O[C@H](COP(=O)(O)OP(=O)(O)OC[C@H]2OC(O)[C@H](O)[C@@H]2O)[C@@H](O)[C@H]1O (stereo partly shown) [ADPR, ADP-ribose]
Median number of cells per colony [8]: 11,560 | Range of number of cells per colony [8]: 6,200-19,000 | median CFC output, BM-derived [9]: 1,500 CFC/ml | median CFC output, PB-derived [10]: 1,460 CFC/ml | median CFC growth from CD34+-enriched fractions (CD34+-enriched MNC): 18,000 CFC/10^6 MNC | range of CFC growth from CD34+-enriched fractions (CD34+-enriched MNC): 360-70,000 CFC/10^6 MNC | Median CFC number per ml ([6]; 100 μM, 24 hours, CB MNC): 2,141 CFC/ml | Range of CFC number per ml ([6]; 100 μM, 24 hours, CB MNC): 600-13,120 CFC/ml | effect on CFC growth compared to untreated cells ([6]; any of the concentrations tested (1-1,000 μM)): No effect

N=c1c2ccn3c2ncn1C1OC(COP(=O)(O)OP(=O)(O)OCC2OC3C(O)C2O)C(O)C1O (stereo not shown) [7-deaza-cADPR]
agonist character [2]: partial agonist | EC50 [2]: ~25 nM | Ca2+ release relative to that induced by cADPR or 3-deaza-cADPR ([2]; maximal response, FIG. 4): about 70% | resistance of the N1-glycosidic linkage to hydrolysis [11]: resistant to hydrolysis | relative potency of cADPR and 7-deaza-cADPR (L. pictus): cADPR is more potent than 7-deaza-cADPR

N=c1c2nc(N)n3c2ncn1[C@@H]1O[C@H](COP(=O)(O)OP(=O)(O)OC[C@H]2O[C@@H]3[C@H](O)[C@@H]2O)[C@@H](O)[C@H]1O [8-NH2-cADPR]
effect on 3-deaza-cADPR-induced Ca2+ release ([2]; 2.7 nM 3-deaza-cADPR, 60 and 300 nM 8-amino-cADPR): blocks; also recorded: can also inhibit | amount of Ca2+ releasable by calcium ionophore A23187 vs untreated (CB MNC [4]; 10 μM, 24 hours): consistent increase | basal [Ca2+]i after incubation (CB MNC [4]; 10 μM, 24 hours, n=3, from 20±2): 14 ± 1 nM | effect on calcium increase induced by cADPR (CB MNC [4]; 100 μM, 2 hours pre-incubation): completely inhibited | [Ca2+]i following exposure to cADPR (CB MNC [4]; 2 hours pre-incubation with 100 μM 8-NH2-cADPR, then 100 μM cADPR for 4 hours, n=2): 20 nM | mean CFC output ([6]; 10 μM 8-NH2-cADPR plus 10-fold excess cADPR (100 μM), 24 hours, control 2,800): 1,200 CFC/ml | mean CFC output ([6]; 10 μM 8-NH2-cADPR plus 100-fold excess cADPR (1 mM), 24 hours, control 2,600): 2,500 CFC/ml | effect on colony growth ([6]; 10 μM, 24 hours pre-treatment): completely inhibited colony growth | median CFC output ([6]; 10 μM, 24 hours, n=3, untreated 3,400): zero | colony growth after further 24 hours with cADPR (100 μM) ([6]; after 10 μM 8-NH2-cADPR pre-treatment): did not restore colony growth

Nc1ccn([C@@H]2O[C@H](CO)[C@@H](O)[C@@H]2O)c(=O)n1 [c-ARA, Cytosine arabinoside]
effect on the growth-stimulating effect of cADPR (CB MNC [12]; 1 μM c-ARA, 24 hours): complete inhibition | effect on increased replating efficiency produced by cADPR priming (CB MNC [12]; 1 μM c-ARA, 24 hours pretreatment): did not affect | median colony number (CB MNC [12]; c-ARA pretreated (1 μM, 24 hours), incubated without cADPR, n=8): 21 per 10^4 plated MNC
